Earlier results on 1 molecule are cited in US20250049738A1, “METHOD OF TREATMENT AND SELECTION OF PATIENTS BENEFITING FROM AGOMELATINE BASED ON EEG MEASUREMENTS” (Alto Neuroscience, Inc., priority 2023, published 2025).

One data set has as its system circadian rhythm. The following applies: in vivo; cited from earlier work.
The test system of another data set is depression. To be noted: in vivo; cited from earlier work.

Molecules are shown by their SMILES.

As to `COc1ccc2[nH]cc(CCNC(C)=O)c2c1` [melatonin], in the data set on circadian rhythm, the “effect on circadian rhythm” value is “phase advance circadian rhythm”. Besides, the antidepressant efficacy entry with depression is recorded as “not an effective antidepressant”.
